Activity calls are given as the source filed them. The calls are words filed in the database; no cut-off is given here.
What was measured:
[1] = target: T1, Protein deacetylase HDAC6 (Homo sapiens) (UniProt Q9UBN7); assay: Inhibition of HDAC6 in human RPMI-8226 cells assessed as increase in acetylated alpha-tubulin level at 0.25 to 1 uM incubated for 24 hrs by western blot analysis; type: cell-based; conditions: dose 0.25-1 µM
T1 sequence (whole entry): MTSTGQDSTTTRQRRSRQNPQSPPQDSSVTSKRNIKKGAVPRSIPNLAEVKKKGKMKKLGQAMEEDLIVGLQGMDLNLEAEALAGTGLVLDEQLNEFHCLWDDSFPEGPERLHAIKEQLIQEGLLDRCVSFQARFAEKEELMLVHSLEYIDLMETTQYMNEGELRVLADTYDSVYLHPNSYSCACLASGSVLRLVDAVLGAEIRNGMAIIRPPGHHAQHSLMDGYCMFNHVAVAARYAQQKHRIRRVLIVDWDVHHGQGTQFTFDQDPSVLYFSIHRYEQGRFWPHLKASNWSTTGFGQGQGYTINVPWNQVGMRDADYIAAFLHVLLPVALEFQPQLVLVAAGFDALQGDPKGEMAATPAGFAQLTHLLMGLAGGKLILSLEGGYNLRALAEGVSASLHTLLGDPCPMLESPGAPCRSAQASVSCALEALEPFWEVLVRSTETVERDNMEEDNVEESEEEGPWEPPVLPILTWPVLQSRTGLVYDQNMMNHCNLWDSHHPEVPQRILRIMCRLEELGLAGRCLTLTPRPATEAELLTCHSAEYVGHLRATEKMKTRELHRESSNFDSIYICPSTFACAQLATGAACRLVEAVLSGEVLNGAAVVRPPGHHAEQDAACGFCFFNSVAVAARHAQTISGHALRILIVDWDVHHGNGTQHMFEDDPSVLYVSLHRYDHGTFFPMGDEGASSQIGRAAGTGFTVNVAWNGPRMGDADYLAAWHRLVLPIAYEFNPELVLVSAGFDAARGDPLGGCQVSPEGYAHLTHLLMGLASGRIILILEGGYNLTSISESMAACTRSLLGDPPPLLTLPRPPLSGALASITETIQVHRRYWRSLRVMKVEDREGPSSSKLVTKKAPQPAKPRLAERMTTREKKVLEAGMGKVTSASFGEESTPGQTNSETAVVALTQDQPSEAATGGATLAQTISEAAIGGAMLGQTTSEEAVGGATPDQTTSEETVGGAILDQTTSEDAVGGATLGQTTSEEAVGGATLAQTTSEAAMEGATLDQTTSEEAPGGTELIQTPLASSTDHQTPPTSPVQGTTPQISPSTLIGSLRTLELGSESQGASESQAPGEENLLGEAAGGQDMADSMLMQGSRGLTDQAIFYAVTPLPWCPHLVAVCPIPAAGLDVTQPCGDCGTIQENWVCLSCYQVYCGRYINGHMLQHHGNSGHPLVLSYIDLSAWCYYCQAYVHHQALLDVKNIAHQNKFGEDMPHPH

Mus musculus [2] = assay: (§1) Anti-pulmonary fibrosis activity in bleomycin-induced idiopathic pulmonary fibrosis C57BL/6J mouse model assessed as decrease in lung damage by measuring decrease in inflammatory cell infiltration in lung at 25 to 50 mg/kg, ig administered daily via gavage and measured on day 14 by Hematoxylin-Eosin staining based analysis; type: functional, organism-based; conditions: dose 25-50 mg/kg, time 14.0 day
Mus musculus [3] = assay: as §1, with “collagen deposition” for “inflammatory cell infiltration”, “Sirius red” for “Hematoxylin-Eosin”; type: functional, organism-based; conditions: dose 25-50 mg/kg, time 14.0 day
[4] = target: T2, Protein deacetylase HDAC6 (Mus musculus) (UniProt Q9Z2V5); assay: In vivo inhibition of HDAC6 in bleomycin-induced idiopathic pulmonary fibrosis C57BL/6J mouse model assessed as increase in acetylated alpha-tubulin level in lung at 25 mg/kg, ig administered via gavage and measured on day 14 by western blot analysis; type: functional, organism-based; conditions: time 14.0 day
T2 sequence (whole entry): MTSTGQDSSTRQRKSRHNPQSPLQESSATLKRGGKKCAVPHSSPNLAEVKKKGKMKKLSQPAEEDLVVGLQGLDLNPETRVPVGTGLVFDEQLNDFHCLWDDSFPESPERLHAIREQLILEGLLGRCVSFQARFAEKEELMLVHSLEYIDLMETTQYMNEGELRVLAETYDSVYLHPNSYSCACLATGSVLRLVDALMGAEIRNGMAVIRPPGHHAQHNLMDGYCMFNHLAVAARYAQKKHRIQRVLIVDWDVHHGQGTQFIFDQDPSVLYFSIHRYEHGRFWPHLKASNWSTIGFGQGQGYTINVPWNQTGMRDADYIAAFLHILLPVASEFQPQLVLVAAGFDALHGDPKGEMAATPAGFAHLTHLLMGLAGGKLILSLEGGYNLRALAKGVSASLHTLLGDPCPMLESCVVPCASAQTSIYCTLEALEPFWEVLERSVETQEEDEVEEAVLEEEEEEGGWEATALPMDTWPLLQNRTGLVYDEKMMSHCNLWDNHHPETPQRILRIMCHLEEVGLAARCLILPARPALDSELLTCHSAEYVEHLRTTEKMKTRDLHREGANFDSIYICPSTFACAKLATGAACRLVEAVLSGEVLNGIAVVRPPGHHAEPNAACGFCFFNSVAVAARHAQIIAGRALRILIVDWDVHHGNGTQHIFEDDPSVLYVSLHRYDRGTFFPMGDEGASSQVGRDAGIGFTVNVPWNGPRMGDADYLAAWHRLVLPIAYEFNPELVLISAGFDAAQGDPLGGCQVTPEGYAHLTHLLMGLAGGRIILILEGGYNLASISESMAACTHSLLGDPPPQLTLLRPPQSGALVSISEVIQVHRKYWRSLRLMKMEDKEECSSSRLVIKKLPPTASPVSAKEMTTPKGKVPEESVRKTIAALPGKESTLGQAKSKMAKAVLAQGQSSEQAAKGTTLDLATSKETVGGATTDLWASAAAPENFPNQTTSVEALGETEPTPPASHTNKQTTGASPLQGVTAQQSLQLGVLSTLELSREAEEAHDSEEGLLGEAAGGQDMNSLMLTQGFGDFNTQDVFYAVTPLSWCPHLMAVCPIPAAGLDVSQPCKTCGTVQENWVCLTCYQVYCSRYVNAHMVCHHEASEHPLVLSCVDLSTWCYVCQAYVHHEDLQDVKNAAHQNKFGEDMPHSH

[5] = target: T2, Protein deacetylase HDAC6 (Mus musculus); assay: In vivo inhibition of HDAC6 in bleomycin-induced idiopathic pulmonary fibrosis C57BL/6J mouse model assessed as increase in acetylated histone H4 level in lung at 50 mg/kg, ig administered via gavage and measured on day 14 by western blot analysis; type: functional, organism-based; conditions: time 14.0 day
[6] = Toxicity against bleomycin-induced pulmonary fibrosis C57BL/6J mouse model assessed as effect on liver morphological changes at 25 to 50 mg/kg, ig administered daily via gavage and measured on day 14 by Hematoxylin-Eosin staining based analysis; type: organism-based; conditions: in vivo, po, 336 h, dose 25-50 mg/kg, time 14 day
[7] = Toxicity against silicosis C57BL/6J mouse model assessed as effect on heart morphological changes at 50 mg/kg, ig administered daily via gavage and measured on day 28 by Hematoxylin-Eosin staining based analysis; type: organism-based; conditions: in vivo, po, 672 h, time 28 day

inhibition [1]: Active | inhibition [4]: inactive
Compound: O=C(NO)c1ccc(CN2C(=O)C3=C(CCN(Cc4cccc(Cl)c4)C3)N3CCN=C23)cc1
Activity (Mus musculus [2]): Active | Activity (Mus musculus [3]): Active | inhibition [5]: Active; Levels Lower Than The Positive Control, Acy-1215 | Activity [6]: Non-toxic | Activity [7]: Non-toxic

— ChEMBL document CHEMBL6092154, “Design, synthesis, and evaluation of a novel TRAIL-activated HDAC6 inhibitor for the treatment of pulmonary fibrosis” (Bioorg Med Chem, 2024)
